Experimental data reported in PubChem BioAssay (NCI).
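A five-concentration, 48-hour dose response in 96-well plates underlies each endpoint, interpolated linearly between surrounding concentrations. At the GI50, growth is halved. At the TGI there is no net growth.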

Assays:
Test in all cases: NCI tumour cell line growth inhibition, 48 h
[1] = system: M14 melanoma
[2] = system: RPMI-8226 leukemia
[3] = system: RXF 393 renal
[4] = system: NCI-H522 lung
[5] = system: CCRF-CEM leukemia
[6] = system: MDA-MB-231 breast
[7] = system: MCF7 breast
[8] = system: HOP-92 NSCLC
[9] = system: SN12C renal
[10] = system: A498 renal
[11] = system: HT29 colon
[12] = system: BT-549 breast
[13] = system: HOP-62 NSCLC
[14] = system: MALME-3M melanoma
[15] = system: NCI-H23 lung
[16] = system: ACHN renal
[17] = system: HCT-116 colon
[18] = system: UACC-62 melanoma
[19] = system: OVCAR-8 ovarian
[20] = system: MOLT-4 leukemia
[21] = system: NCI-H226 lung
[22] = system: OVCAR-3 ovarian
[23] = system: HS 578T breast
[24] = system: MDA-MB-435
[25] = system: SK-MEL-2 melanoma
[26] = system: HCC-2998 colon
[27] = system: SNB-75 CNS
[28] = system: K-562 leukemia
[29] = system: OVCAR-4 ovarian
[30] = system: U251 CNS
[31] = system: A549 NSCLC
[32] = system: SNB-19 CNS
[33] = system: SK-OV-3 ovarian
[34] = system: IGROV1 ovarian
[35] = system: SK-MEL-5 melanoma
[36] = system: 786-0 renal
[37] = system: TK-10 renal
[38] = system: CAKI-1 renal
[39] = system: T-47D breast
[40] = system: HCT-15 colon
[41] = system: SF-295 CNS
[42] = system: DU-145 prostate
[43] = system: SK-MEL-28 melanoma
[44] = system: SF-268 CNS
[45] = system: PC-3 prostate
[46] = system: SF-539 CNS
[47] = system: HL-60(TB) leukemia
[48] = system: OVCAR-5 ovarian
[49] = system: SR leukemia
[50] = system: SW-620 colon
[51] = system: NCI-H460 lung
[52] = system: NCI/ADR-RES ovarian
[53] = system: COLO 205 colon
[54] = system: UO-31 renal
[55] = system: KM12 colon
[56] = system: UACC-257 melanoma
[57] = system: LOX IMVI melanoma
[58] = system: EKVX NSCLC

CCN1CCN(Cc2ccc(Nc3ncc(F)c(-c4cc(F)c5nc(C)n(C(C)C)c5c4)n3)nc2)CC1
GI50 [1]: 3.6 µM | TGI [1]: 11.5 µM | GI50 [2]: 6.68 µM | TGI [2]: 19.1 µM | GI50 [3]: 0.389 µM | TGI [3]: 8.34 µM | GI50 [4]: 8.92 µM | TGI [4]: 18.1 µM | GI50 [5]: 1.14 µM | TGI [5]: 15 µM | GI50 [6]: 6.29 µM | TGI [6]: 13 µM | GI50 [7]: 0.0241 µM | TGI [7]: 10.4 µM | GI50 [8]: 0.0337 µM | TGI [8]: 50 µM | GI50 [9]: 5.55 µM | TGI [9]: 12.6 µM | GI50 [10]: 1.05 µM | TGI [10]: 50 µM | GI50 [11]: 0.268 µM | TGI [11]: 10.8 µM | GI50 [12]: 6.54 µM | TGI [12]: 13.7 µM | GI50 [13]: 6.68 µM | TGI [13]: 13.8 µM | GI50 [14]: 0.0557 µM | TGI [14]: 10.5 µM | GI50 [15]: 3.26 µM | TGI [15]: 15.2 µM | GI50 [16]: 0.172 µM | TGI [16]: 9.56 µM | GI50 [17]: 0.336 µM | TGI [17]: 11.7 µM | GI50 [18]: 6.39 µM | TGI [18]: 14.2 µM | GI50 [19]: 9.58 µM | TGI [19]: 26.2 µM | GI50 [20]: 0.156 µM | TGI [20]: 9.85 µM | GI50 [21]: 0.109 µM | TGI [21]: 25.2 µM | GI50 [22]: 6.34 µM | TGI [22]: 13.5 µM | GI50 [23]: 0.745 µM | TGI [23]: 15.3 µM | GI50 [24]: 0.191 µM | TGI [24]: 10.7 µM | GI50 [25]: > 50 µM | TGI [25]: > 50 µM | GI50 [26]: 5.35 µM | TGI [26]: 11.5 µM | GI50 [27]: 0.094 µM | TGI [27]: 6.68 µM | GI50 [28]: 5.85 µM | TGI [28]: 21 µM | GI50 [29]: 6.49 µM | TGI [29]: 16.2 µM | GI50 [30]: 0.317 µM | TGI [30]: 11.6 µM | GI50 [31]: 0.411 µM | TGI [31]: 11.9 µM | GI50 [32]: 5.48 µM | TGI [32]: 12.4 µM | GI50 [33]: 3.22 µM | TGI [33]: 11.7 µM | GI50 [34]: 2.03 µM | TGI [34]: 13.1 µM | GI50 [35]: 0.392 µM | TGI [35]: 10.3 µM | GI50 [36]: 4.74 µM | TGI [36]: 13.2 µM | GI50 [37]: 0.029 µM | TGI [37]: 8.63 µM | GI50 [38]: 0.187 µM | TGI [38]: 7.51 µM | GI50 [39]: 19.3 µM | TGI [39]: 29 µM | GI50 [40]: 0.47 µM | TGI [40]: 11.7 µM | GI50 [41]: 0.0882 µM | TGI [41]: 9.08 µM | GI50 [42]: 5.75 µM | TGI [42]: 12.2 µM | GI50 [43]: 6.03 µM | TGI [43]: 12.9 µM | GI50 [44]: 5.32 µM | TGI [44]: 13.9 µM | GI50 [45]: 0.0527 µM | TGI [45]: 11.1 µM | GI50 [46]: 7.39 µM | TGI [46]: 15.7 µM | GI50 [47]: 2.82 µM | TGI [47]: 13.2 µM | GI50 [48]: 8.53 µM | TGI [48]: 50 µM | GI50 [49]: 0.101 µM | TGI [49]: 6.92 µM | GI50 [50]: 0.192 µM | TGI [50]: 11.9 µM | GI50 [51]: 0.959 µM | TGI [51]: 12.7 µM | GI50 [52]: 10.4 µM | TGI [52]: 26.2 µM | GI50 [53]: 0.218 µM | TGI [53]: 6.26 µM | GI50 [54]: 0.139 µM | TGI [54]: 7.26 µM | GI50 [55]: 0.56 µM | TGI [55]: 9.29 µM | GI50 [56]: 5.45 µM | TGI [56]: 7.97 µM | GI50 [57]: 1.41 µM | TGI [57]: 10.9 µM

Cc1[nH]c(C(=O)Nc2cccc(OC3CCNCC3)c2)c(Cl)c1Cl
GI50 [1]: 1.8 µM | TGI [1]: 3.52 µM | GI50 [2]: 2.05 µM | TGI [2]: 4.59 µM | GI50 [3]: 1.74 µM | TGI [3]: 3.46 µM | GI50 [4]: 1.86 µM | TGI [4]: 4.02 µM | GI50 [5]: 1.92 µM | TGI [5]: 4.26 µM | GI50 [6]: 1.74 µM | TGI [6]: 3.45 µM | GI50 [7]: 1.5 µM | TGI [7]: 3.05 µM | GI50 [8]: 1.32 µM | TGI [8]: 4 µM | GI50 [9]: 2.8 µM | TGI [9]: 10.1 µM | GI50 [10]: 1.89 µM | TGI [10]: 4.6 µM | GI50 [11]: 1.92 µM | TGI [11]: 4.44 µM | GI50 [12]: 4.65 µM | TGI [12]: 18.1 µM | GI50 [13]: 1.9 µM | TGI [13]: 4.53 µM | GI50 [14]: 1.6 µM | TGI [14]: 3.22 µM | GI50 [15]: 2.14 µM | TGI [15]: 5.54 µM | GI50 [16]: 1.75 µM | TGI [16]: 3.17 µM | GI50 [17]: 1.65 µM | TGI [17]: 3.24 µM | GI50 [18]: 1.81 µM | TGI [18]: 3.45 µM | GI50 [19]: 2.05 µM | TGI [19]: 4.31 µM | GI50 [20]: 1.94 µM | TGI [20]: 4.12 µM | GI50 [21]: 2.43 µM | TGI [21]: 6.78 µM | GI50 [22]: 1.97 µM | TGI [22]: 4.01 µM | GI50 [23]: 2.02 µM | TGI [23]: 5.16 µM | GI50 [24]: 1.81 µM | TGI [24]: 3.3 µM | GI50 [25]: 2.14 µM | TGI [25]: 4.54 µM | GI50 [26]: 1.76 µM | TGI [26]: 3.31 µM | GI50 [27]: 1.13 µM | TGI [27]: 2.65 µM | GI50 [28]: 1.76 µM | TGI [28]: 4.53 µM | GI50 [29]: 2.6 µM | TGI [29]: 6.76 µM | GI50 [30]: 1.93 µM | TGI [30]: 4.19 µM | GI50 [31]: 2.04 µM | TGI [31]: 4.17 µM | GI50 [32]: 2.11 µM | TGI [32]: 5.18 µM | GI50 [33]: 2.07 µM | TGI [33]: 5.09 µM | GI50 [34]: 1.76 µM | TGI [34]: 3.37 µM | GI50 [35]: 1.78 µM | TGI [35]: 3.23 µM | GI50 [36]: 1.83 µM | TGI [36]: 3.44 µM | GI50 [37]: 1.94 µM | TGI [37]: 3.7 µM | GI50 [38]: 1.82 µM | TGI [38]: 3.39 µM | GI50 [39]: 1.96 µM | TGI [39]: 4.52 µM | GI50 [40]: 1.73 µM | TGI [40]: 3.36 µM | GI50 [41]: 1.97 µM | TGI [41]: 3.96 µM | GI50 [42]: 1.89 µM | TGI [42]: 3.52 µM | GI50 [43]: 1.64 µM | TGI [43]: 3.07 µM | GI50 [44]: 1.77 µM | TGI [44]: 3.75 µM | GI50 [45]: 1.69 µM | TGI [45]: 3.36 µM | GI50 [46]: 1.64 µM | TGI [46]: 3.06 µM | GI50 [47]: 1.91 µM | TGI [47]: 4.08 µM | GI50 [48]: 1.63 µM | TGI [48]: 3.11 µM | GI50 [49]: 2.02 µM | TGI [49]: 5.09 µM | GI50 [58]: 1.57 µM | TGI [58]: 3.39 µM | GI50 [50]: 1.88 µM | TGI [50]: 3.64 µM | GI50 [51]: 1.95 µM | TGI [51]: 3.7 µM | GI50 [52]: 1.84 µM | TGI [52]: 3.47 µM | GI50 [53]: 1.93 µM | TGI [53]: 4.02 µM | GI50 [54]: 1.52 µM | TGI [54]: 2.94 µM | GI50 [55]: 1.93 µM | TGI [55]: 3.73 µM | GI50 [56]: 1.76 µM | TGI [56]: 3.55 µM | GI50 [57]: 1.66 µM | TGI [57]: 3.16 µM
